{"source": "patent US20050180982A1", "about": "“Cadherin-11 expression, an assay and treatment for cellular invasiveness” (THE UNIVERSITY OF BRITISH COLUMBIA, priority 1998, published 2005)", "key": {"[1]": {"system": "cad-11 RNA transcript in human granulosa cells", "test": "Specificity of antisense in granulosa cells, Northern blot, cad-11 probe", "assay_type": "cell-based", "parameters": "dose or concentration left out as unconfirmed", "settings": "24 hours, dose-dependent manner for OB-1", "description": "(§1) In order to determine the specificity of OB-1, the effect of OB-1 was determined in human granulosa cells. Human granulosa cells express three cadherin subtypes (cad-11, cad-6 and N-cad) as they undergo spontaneous luteinization in culture. Granulosa cells which had been cultured for 36 hours were treated with OB-1 or OB-3 (0.5-5 M). The cultures were maintained for a further 24 hours, after which the cells were harvested for Northern analysis. Northern blots were probed with cad-11, cad-6, or N-cadherin (neural cadherin) cDNA probes as previously described. OB-1 caused a reduction in the levels of the cad-11 RNA transcript in a dose-dependent manner but had no effect on cad-6 or N-cadherin mRNA levels. In contrast."}, "[2]": {"system": "cad-6 mRNA in human granulosa cells", "test": "Specificity of antisense in granulosa cells, Northern blot, cad-6 probe", "assay_type": "cell-based", "settings": "0.5-5 M, 24 hours", "description": "as §1"}, "[3]": {"system": "N-cadherin mRNA in human granulosa cells", "test": "Specificity of antisense in granulosa cells, Northern blot, N-cadherin probe", "assay_type": "cell-based", "settings": "0.5-5 M, 24 hours", "description": "as §1"}, "[4]": {"system": "Cos-1 cells transfected with the steroid acute regulatory protein", "test": "Non-specific effects on cell number and steroidogenic capacity in Cos-1 cells", "assay_type": "cell-based", "parameters": "cell number (Coulter cell counter): dose or concentration left out as unconfirmed", "description": "Non-specific effects of the antisense oligonucleotides on cell viability and the steroidogenic capacity of cells was determined using Cos-1 cells transfected with the steroid acute regulatory protein (from Dr. J. F. Strauss, III. University of Pennsylvania, Philadelphia, Pa.). […] The COS-1 cells were cultured in the presence or absence of varying concentrations of OB-1 OR OB-3 (0.5-5 M) for 48 hours. The cell number present in each culture was determined using a Coulter™ cell counter and P4 concentrations present in the culture medium using a Progesterone RIA™ kit. As determined by these parameters."}, "[5]": {"system": "cad-11 in cytotrophoblasts isolated from term placenta", "test": "Western blot of cad-11 in term placenta cytotrophoblasts treated with oligonucleotide", "assay_type": "cell-based, human", "settings": "5 NI, further 24 or 48 hours", "description": "(§2) Cellular aggregation in these cultures is observed after approximately 12 hours, with syncytial structures being observed after approximately 24 hours. After 72 hours, multinucleated syncytium is the predominant cell feature in these cultures. As described above, the terminal differentiation and fusion of these cells is associated with an increase in cad-11 mRNA and protein expression levels and a concomitant decrease in E-cad expression.\n(§3) The effects of OB-1 on the differentiation of these trophoblasts isolated from term placenta was determined. Cytotrophoblasts were cultured for 0, 6, 12 or 24 hours before being treated with either OB-1 or OB-3 (5 NI). The cultures were maintained for a further 24 or 48 hours, after which the cells were harvested for Western blot analysis."}, "[6]": {"system": "E-cad in cytotrophoblasts isolated from term placenta", "test": "Western blot of E-cad in term placenta cytotrophoblasts treated with oligonucleotide", "assay_type": "cell-based, human", "settings": "5 NI, further 24 or 48 hours", "description": "as §2, §3"}, "[7]": {"system": "cytotrophoblasts isolated from term placenta", "test": "Morphology of cytotrophoblasts by light microscopy and indirect immunofluorescence", "assay_type": "cell-based, human", "text": "The effect of OB-1 and OB-3 on the morphology of the cytotrophoblast was examined by light microscopy and indirect immunofluoresence."}, "[8]": {"system": "villous cytotrophoblasts", "test": "P4 and hCG in culture medium of villous cytotrophoblasts (functional differentiation)", "assay_type": "cell-based, human", "settings": "compared with OB-3 treated cells", "description": "To determine whether reduced cad-11 expression in villous cytotrophoblasts would affect the functional differentiation of the primary cell cultures, concentrations of P4 and hCG were measured in the culture medium. The number of cells present in these cell cultures was determined by DNA content."}, "[9]": {"system": "villous cytotrophoblasts", "test": "Reversibility of oligonucleotide effects on villous cytotrophoblasts", "assay_type": "cell-based, human", "settings": "48 hours with oligonucleotide, washed, further 24 hours", "description": "To determine whether the effects of OB-1 on villous cytotrophoblasts are reversible, cells were cultured in the presence of OB-1 or OB-3 for 48 hours. The cells were washed thoroughly with PBS. The culture medium was then replaced and the cells cultured for a further 24 hours. […] The majority of cells (90%) detached from the culture and dish. Cad-11 was not detected in the remaining cells."}, "[10]": {"system": "BeWo choriocarcinoma cells", "test": "BeWo choriocarcinoma cells cultured with cAMP, differentiation and fusion", "assay_type": "cell-based"}, "[11]": {"system": "cad-11 in decidual explants", "test": "Western blot of cad-11 in decidual explants", "assay_type": "cell-based, human", "parameters": "dose or concentration left out as unconfirmed", "description": "Co-cultures of decidua parietalis and villous placenta were established on a three-dimensional gel of rat tail collagen. The decidua and the villous tissue were cut into 1-2 mm cubes, explants were placed in 35 nun culture dishes containing 0.1 ml of the collagen mixture. After the gel had formed, a piece of villous tissue, suspended in 0.05 ml of culture medium was placed on to the exposed decidual surface. After 2 hours, the plates were flooded with culture medium. Stable adhesion between the villous and decidual tissues occurred within 48 hours. Samples are harvested after 48, 72, or 96 hours of culture. Tissues were embedded in OCT compound, snap frozen, and frozen section prepared. Blocks containing the co-cultures were cut in-full in order to obtain information about the three dimensional aspect of the contact sites. Contact sites were identified by hematoxylin staining and confirmed by immunostaining for cytokeratin. In the areas of contact, there was cytotrophoblast layering leading to localized erosion of the syncytial trophoblast and the formation of an extravillous column, which penetrates the underlying decidual explant.\nIn order to determine whether the cad-11 antisense oligonucleotides could decrease cad-11 expression in tissue explants, decidual explants were cultured in the presence of OB-1 or OB-3 (5 M) for 24 hours."}, "[12]": {"system": "Villous cytotrophoblasts isolated from the human term placenta, cultured 72 hours"}, "[13]": {"system": "human decidual cells"}, "[14]": {"system": "PC3 cells treated with TGF-1"}, "[15]": {"system": "human decidual cells", "test": "Effect on primary cultures of human decidual cells", "parameters": "cell interactions and attachment: dose or concentration left out as unconfirmed", "settings": "for 24 hours"}, "[16]": {"system": "PC3 cells treated with TGF-1", "test": "Effect of oligonucleotides on PC3 cells treated with TGF-1", "parameters": "cell interactions and attachment: dose or concentration left out as unconfirmed", "settings": "for 24 hours"}}}
{"substance": "OB-1: cad-11 antisense oligonucleotide, 18 mer, phosphothiorate: GGC GGC TTG TAA ACA GTA (SEQ ID NO:1) (antisense GGCGGCTTGTAAACAGTA; all phosphorothioate, sugars by position and methylation of C not given here; listed as Homo sapiens)", "values": [{"measurement": "levels of the cad-11 RNA transcript", "setting": "[1]", "result": "reduction"}, {"measurement": "cad-6 mRNA levels", "setting": "[2]", "result": "no effect"}, {"measurement": "N-cadherin mRNA levels", "setting": "[3]", "result": "no effect"}, {"measurement": "steroidogenic capacity (P4 concentrations in culture medium, RIA)", "setting": "[4]; 0.5-5 M for 48 hours", "result": "did not have a significant effect"}, {"measurement": "cell number (Coulter cell counter)", "setting": "[4]; for 48 hours", "result": "did not have a significant effect"}, {"measurement": "cad-11 expression with time in culture", "setting": "[5]", "result": "failed to up-regulate"}, {"measurement": "E-cad levels", "setting": "[6]", "result": "remained constant"}, {"measurement": "composition of cellular structures formed (fusion)", "setting": "[7]; indirect immunofluorescence for E-cadherin", "result": "mononucleate cytotrophoblasts"}, {"measurement": "ability of the cytotrophoblasts to aggregate", "setting": "[7]; light microscopy", "result": "did not appear to affect"}, {"measurement": "levels of P4 in the culture medium", "setting": "[8]", "result": "significantly lower"}, {"measurement": "levels of hCG in the culture medium", "setting": "[8]", "result": "significantly lower"}, {"measurement": "cad-11 in the remaining cells", "setting": "[9]", "result": "not detected"}, {"measurement": "cell viability after wash-out", "setting": "[9]", "result": "no longer viable"}, {"measurement": "cells detached from the culture dish", "setting": "[9]", "result": 90, "unit": "%"}, {"measurement": "cellular differentiation and fusion", "setting": "[10]; cells cultured in the presence of cAMP for 12 hours", "result": "inhibiting cellular differentiation and fusion"}, {"measurement": "membrane integrity of the syncytial structures", "setting": "[10]; syncytial structures formed after 24 hours of cAMP", "result": "disrupted the membrane integrity"}, {"measurement": "cad-11 expression", "setting": "[11]", "result": "significantly reduced"}, {"measurement": "viability of syncytial structures (trypan blue)", "setting": "[12]", "result": "no longer viable"}, {"measurement": "structures observed (phase contrast microscopy)", "setting": "[12]; oligonucleotide added after 72 hours of culture, OB-1 for 24 hours", "result": "cellular debris"}, {"measurement": "viability by trypan blue staining", "setting": "[13]", "result": "no longer viable"}, {"measurement": "viability by trypan blue staining", "setting": "[14]", "result": "no longer viable"}, {"measurement": "cell interactions and attachment", "setting": "[15]", "result": "lose interactions with one another and detach from the plastic in a dose-dependent manner"}, {"measurement": "cell interactions and attachment", "setting": "[16]", "result": "lose interactions with one another, and detach from the plastic in a dose-dependent manner"}]}
